Columns and labels:
Type in all cases: physicochemical
[1] = Formation of aggregates and fibrous structures
[2] = Hydrogel formation / minimum gelation concentration
Source text: To prepare the peptide hydrogels, the lyophilized peptide powders were first dissolved in milliQ water and mixed by vortexing for 30 seconds to obtain a homogenous solution. The gelation occurred between minutes to overnight, depending on the peptide concentration. Gelation can be facilitated by sonication or heating.

[3] = Hydrogel rigidity, storage modulus (G′)

Substance: Ac-LD6 (L)
- concentration at which formation of aggregates is observed [1]: 100 µg/mL
- concentration at which peptide monomers align to form fibrous structures [1]: 1000 µg/mL

Substance: Ac-ILVAG
- hydrogel formation ([2]; at 5 mg/mL): hydrogel

Substance: Ac-LIVAGK-NH2
- storage modulus (G′) ([3]; 20 mg/mL hydrogel in normal saline (NaCl)): 10 kPa
- storage modulus (G′) ([3]; 20 mg/mL hydrogel in phosphate buffered saline (PBS)): 40 kPa
- storage modulus (G′) ([3]; 20 mg/mL hydrogel in water): 1 kPa
- storage modulus (G′) ([3]; 20 mg/mL hydrogel, addition of sodium hydroxide (NaOH)): 80 kPa
- minimum gelation concentration (forms hydrogels at) ([2]; in 10 mM NaOH): 10 mg/mL
- minimum gelation concentration (forms hydrogels at) ([2]; in PBS): 7.5 mg/mL
- minimum gelation concentration (forms hydrogels at) ([2]; in saline): 12 mg/mL
- minimum gelation concentration (forms hydrogels at) ([2]; in water): 20 mg/mL
